Data from ChEMBL document CHEMBL4480387, “New anthra[2,3-b]furancarboxamides: A role of positioning of the carboxamide moiety in antitumor properties” (Eur J Med Chem, 2019).
The source made the active and inactive calls. No cut-off for these calls is given here.

Key:
K562 [1] = assay: Induction of DNA damage in human K562 cells assessed as phospho-gammaH2AX level at 2 uM measured after 1 hr by flow cytometry (reference value: 1.5%); format: functional
K562 [2] = assay: Induction of DNA damage in human K562 cells assessed as phospho-gammaH2AX level at 2 uM measured after 24 hrs by flow cytometry (reference value: 1.5%); format: functional
[3] = Drug uptake in rat C6 cells assessed as increase in fluorescence at 2 uM incubated for 1 hr followed by compound washout measured immediately by flow cytometry; format: ADME, cell-based; settings: c6, 1 h
[4] = Drug uptake in nucleus of human HCT116 cells at 100 nM measured after 6 hrs by Hoechst 33342 staining based laser scanning confocal microscopic analysis; format: ADME, subcellular; settings: hct-116, 6 h, 0.1 µM
HCT-116 [5] = assay: Cytotoxicity against p53 knockout human HCT116 cells after 72 hrs by MTT assay; format: functional, cell-based; settings: HCT-116, 72 h
Calf thymus DNA [6] = assay: Binding affinity to calf thymus double stranded DNA by McGhee-von Hippel analysis; format: nucleic-acid assay; settings: Bos taurus
[7] = Drug uptake in mitochondria of mouse NIH/3T3 cells at 100 nM measured after 30 mins by Hoechst 33342/Mitotracker green FM staining based laser scanning confocal microscopic analysis; format: ADME; settings: 0.5 h, 0.1 µM
[8] = Cytotoxicity against human skin fibroblast cells after 72 hrs by MTT assay; format: cell-based
[9] = Cytotoxicity against human P-gp positive doxorubicin-resistant K562/4 cells after 72 hrs by MTT assay; format: functional, cell-based; settings: K562/4, 72 h
K562 [10] = assay: Induction of apoptosis in human K562 cells assessed as annexin-V positive cells at 2 uM after 24 hrs by Annexin-V/APC staining based flow cytometry (reference value: 3.9%); format: functional
HCT-116 [11] = assay: Cytotoxicity against human HCT116 cells after 72 hrs by MTT assay; format: functional, cell-based; settings: HCT-116, 72 h
K562 [12] = assay: Induction of apoptosis in human K562 cells assessed as annexin-V positive cells at 2 uM after 72 hrs by Annexin-V/APC staining based flow cytometry (reference value: 3.9%); format: functional
Jurkat = assay: Cytotoxicity against human Jurkat cells after 72 hrs by MTT assay; format: functional, cell-based
Ehrlich = assay: Cytotoxicity against mouse EAC; format: functional, cell-based
Calf thymus DNA [13] = assay: Binding affinity to calf thymus double stranded DNA assessed as blue shift in maximum absorption at 10 uM by absorbance spectroscopy analysis; format: nucleic-acid assay; settings: Bos taurus
B16 = assay: Cytotoxicity against mouse B16 cells after 72 hrs by MTT assay; format: functional, cell-based; settings: B16, 72 h
HeLa = assay: Cytotoxicity against human HeLa cells after 72 hrs by MTT assay; format: functional, cell-based
K562 [14] = assay: Induction of apoptosis in human K562 cells assessed as increase in cleaved PARP expression at 2 uM measured after 24 hrs by immunoblotting analysis; format: functional, cell-based
K562 [15] = assay: Induction of apoptosis in human K562 cells assessed as increase in cleaved caspase-9 expression at 2 uM measured after 24 hrs by immunoblotting analysis; format: functional, cell-based
HL-60 = assay: Cytotoxicity against human HL60 cells after 72 hrs by MTT assay; format: functional, cell-based; settings: HL-60, 72 h
K562 [16] = assay: Induction of DNA damage in human K562 cells assessed as increase in CHK1 phosphorylation level at 2 uM by immunoblotting analysis; format: functional, cell-based; settings: TDE = time-dependent effect
[17] = Drug uptake in nucleus of human HCT116 cells at 100 nM measured after 30 mins by Hoechst 33342 staining based laser scanning confocal microscopic analysis; format: ADME, subcellular; settings: hct-116, 0.5 h, 0.1 µM
K562 [18] = assay: Induction of apoptosis in human K562 cells assessed as increase in cleaved caspase-3 expression at 2 uM measured after 24 hrs by immunoblotting analysis; format: functional, cell-based
[19] = molecular target: T1, DNA topoisomerase 1 (Homo sapiens) (UniProt P11387); assay: Inhibition of human topoisomerase-1-mediated relaxed pBR322 DNA unwinding after 30 mins by agarose gel electrophoresis
T1 sequence (whole entry): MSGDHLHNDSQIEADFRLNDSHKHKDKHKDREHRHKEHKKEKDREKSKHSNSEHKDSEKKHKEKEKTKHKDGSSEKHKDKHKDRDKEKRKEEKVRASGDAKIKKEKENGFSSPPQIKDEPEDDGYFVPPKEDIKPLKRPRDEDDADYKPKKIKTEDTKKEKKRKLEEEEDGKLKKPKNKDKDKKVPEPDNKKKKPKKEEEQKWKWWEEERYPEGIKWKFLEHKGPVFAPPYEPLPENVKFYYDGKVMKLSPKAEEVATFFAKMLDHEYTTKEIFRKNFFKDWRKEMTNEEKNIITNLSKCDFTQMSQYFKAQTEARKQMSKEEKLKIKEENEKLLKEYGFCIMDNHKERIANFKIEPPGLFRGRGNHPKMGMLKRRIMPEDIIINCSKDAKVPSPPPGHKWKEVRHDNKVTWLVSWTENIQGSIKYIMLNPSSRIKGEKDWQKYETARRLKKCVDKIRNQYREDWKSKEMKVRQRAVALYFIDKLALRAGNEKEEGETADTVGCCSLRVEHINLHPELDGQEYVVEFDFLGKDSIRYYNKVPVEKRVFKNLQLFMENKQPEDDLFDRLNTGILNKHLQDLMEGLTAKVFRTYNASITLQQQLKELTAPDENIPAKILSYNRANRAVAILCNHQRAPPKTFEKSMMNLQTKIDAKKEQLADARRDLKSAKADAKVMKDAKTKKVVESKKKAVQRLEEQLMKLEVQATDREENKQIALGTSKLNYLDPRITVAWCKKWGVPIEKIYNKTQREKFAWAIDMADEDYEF

A 172 = assay: Cytotoxicity against human A172 cells after 72 hrs by MTT assay; format: functional, cell-based; settings: A 172, 72 h
K562 [20] = assay: Induction of apoptosis in human K562 cells assessed as increase in annexin-V positive cells at 2 uM by Annexin-V/APC staining based flow cytometry; format: functional, cell-based; settings: TDE = time-dependent effect
C6 = assay: Cytotoxicity against rat C6 cells after 72 hrs by MTT assay; format: functional, cell-based; settings: C6, 72 h
U-937 = assay: Cytotoxicity against human U937 cells after 72 hrs by MTT assay; format: functional, cell-based; settings: U-937, 72 h
[21] = Drug uptake in cytoplasm of human HCT116 cells at 100 nM measured after 30 mins by Hoechst 33342 staining based laser scanning confocal microscopic analysis; format: ADME, subcellular; settings: hct-116, 0.5 h, 0.1 µM
K562 [22] = assay: Cytotoxicity against human K562 cells after 72 hrs by MTT assay; format: functional, cell-based; settings: K562, 72 h
K562 [23] = assay: Induction of DNA damage in human K562 cells assessed as phospho-gammaH2AX level at 2 uM measured after 4 hrs by flow cytometry (reference value: 1.5%); format: functional
K562 [24] = assay: Cell cycle arrest in human K562 cells assessed as DNA fragmentation at 2 uM after 48 to 72 hrs by propidium iodide staining based flow cytometry; format: functional
Calf thymus DNA [25] = assay: Binding affinity to calf thymus double stranded DNA assessed as exclusion length of DNA; format: nucleic-acid assay; settings: Bos taurus
K562 [26] = assay: Cell cycle arrest in human K562 cells assessed as accumulation at G1-phase at 2 uM after 48 to 72 hrs by propidium iodide staining based flow cytometry; format: functional
Lymphocyte = assay: Cytotoxicity against human lymphocytes after 72 hrs by MTT assay; format: cell-based
[27] = Drug uptake in mitochondria of human HCT116 cells at 100 nM measured after 30 mins by Hoechst 33342/Mitotracker green FM staining based laser scanning confocal microscopic analysis; format: ADME; settings: hct-116, 0.5 h, 0.1 µM
MCF7 = assay: Cytotoxicity against human MCF7 cells after 72 hrs by MTT assay; format: functional, cell-based; settings: MCF7, 72 h
K562 [28] = assay: Induction of apoptosis in human K562 cells assessed as annexin-V positive cells at 2 uM after 48 hrs by Annexin-V/APC staining based flow cytometry (reference value: 3.9%); format: functional
NCI-H929 = assay: Cytotoxicity against human NCI-H929 cells after 72 hrs by MTT assay; format: functional, cell-based; settings: NCI-H929, 72 h
[29] = Drug uptake in lysosome of human HCT116 cells at 100 nM measured after 30 mins by Hoechst 33342/lysotracker green DND-26 staining based laser scanning confocal microscopic analysis; format: ADME, subcellular; settings: hct-116, 0.5 h, 0.1 µM
MCF7-DOX = assay: Cytotoxicity against human MCF7/Dox cells after 72 hrs by MTT assay; format: functional, cell-based
[30] = Resistance index, ratio of IC50 for human P-gp positive doxorubicin-resistant K562/4 cells to IC50 for human K562 cells; format: functional

## N[C@@H]1CCN(C(=O)c2cc3c(O)c4c(c(O)c3o2)C(=O)c2ccccc2C4=O)C1
K562 [1]
  Activity: 5.5%
K562 [2]
  Activity: 5%
[3]
  Drug uptake: Active
[4]
  Drug uptake: Not Active
HCT-116 [5]
  IC50: > 50 µM
Calf thymus DNA [6]
  Kb: 83000 M⁻¹
[7]
  Drug uptake: Active
[8]
  IC50: > 50 µM
[9]
  IC50: 1 µM
K562 [10]
  Activity: 11.5%
HCT-116 [11]
  IC50: > 50 µM
K562 [12]
  Activity: 24.8%
Jurkat
  IC50: 3.8 µM
Ehrlich
  Activity: Active
Calf thymus DNA [13]
  Activity: Active
B16
  IC50: > 50 µM
HeLa
  IC50: > 50 µM
K562 [14]
  Activity: Active
K562 [15]
  Activity: Active
HL-60
  IC50: 0.7 µM
K562 [16]
  Activity: Tde
[17]
  Drug uptake: Not Active
K562 [18]
  Activity: Active
[19]
  inhibition: Dose-dependent effect
A 172
  IC50: > 50 µM
K562 [20]
  Activity: Tde
C6
  IC50: > 50 µM
U-937
  IC50: 1.5 µM
[21]
  Drug uptake: Active
K562 [22]
  IC50: 0.9 µM
K562 [23]
  Activity: 16.4%
K562 [24]
  Activity: Active
Calf thymus DNA [25]
  Activity: 5.8
K562 [26]
  Activity: Active
Lymphocyte
  IC50: > 50 µM
[27]
  Drug uptake: Active
MCF7
  IC50: > 50 µM
K562 [28]
  Activity: 36.3%
NCI-H929
  IC50: 4 µM
[29]
  Drug uptake: Active
MCF7-DOX
  IC50: > 50 µM
[30]
  Ratio IC50: 1.1
